Laboratory results taken from patent publication US9012655B2, “Antimicrobial/adjuvant compounds and methods” (Denouamed, Inc., priority 2011, dated 2015).
≈ marks a conversion by molar mass, not a printed value.

Key:
AcpS enzyme = AcpS enzyme (Escherichia coli, UniProt P24224); test: Measurement of AcpS inhibition ([3H]acetyl-CoA incorporation into apo-ACP); type: biochemical; details: % activity vs blank-subtracted counts; for remaining activity at 500 µM / % AcpS activity @ 500 uM: test compound 500 uM; for activity at 50 µM / % AcpS activity at 50 uM: test compound 50 uM
AcpS enzyme, sequence (P24224 whole entry): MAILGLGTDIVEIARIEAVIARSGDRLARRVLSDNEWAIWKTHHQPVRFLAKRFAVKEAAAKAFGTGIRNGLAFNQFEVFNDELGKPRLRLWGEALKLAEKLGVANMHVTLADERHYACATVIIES
Protocol: [^3H]Acetyl-CoA was mixed as 1 volume of Perkin Elmer NET290 radiolabeled stock (e.g. 0.1 mCi/ml, 3.7 Ci/mmol in Na-acetate, pH 4.5-5.0=27 μM) with 1.2 volumes of 1 mM unlabelled acetyl-CoA (Sigma). Trichloroacetic acid was prepared as a 10% w/v solution. Bovine serum albumin was prepared as a 25 mg/ml solution in water. DTT was prepared as a 50 mM solution in water.
• 1. A standard reaction contained the following in a total volume of 10 μl:
• 2. Tubes were incubated at RT. [^3H]acetyl-CoA was added last to start the reaction. To stop the reaction, 2 μl was removed to a 1.5-ml microfuge tube containing 800 μl cold 10% TCA. Up to four time points were collected for each reaction, e.g. at 5 min, 10 min, 30 min, and 60 min. • 3. 20 μl of 25 mg/ml BSA was added to each tube, mixed and incubated on ice for 10 min, then centrifuged at 12,000 g for 5 min to form a pellet. Supernatant was removed using P1000. • 4. Each pellet was washed twice with 800 μl of cold 10% TCA each time, then centrifuged at 12,000 g for 5 min after each wash. The supernatant was discarded. Each pellet was resuspended in 50 μl of formic acid. The suspension was transferred to a scintillation vial and radioactivity was measured in 2 ml of liquid scintillation cocktail.
The random (stochastic) error in scintillation counting is proportional to the square root of the counts (not dpm) accumulated in the counting period; i.e. 10% for 100, 3.3% for 1,000, 1% for 10,000, etc. Provided radioactive counts (dpm) are in the thousands, the assay provides useful data. Results are reported in terms of % activity with respect to the blank-subtracted counts for working substrate. A % activity of less than about 40% is indicative of AcpS enzyme inhibition by the test compound at that concentration.

[1] = test system: Methicillin-Resistant Staph. aureus (MRSA); test: MIC, NCCLS M7-A6 broth microdilution, MRSA; type: cell-based; details: 16 to 20 h, 35 degrees Celsius; for MIC: Staphylococcus aureus, MRSA
Protocol: (§1) Susceptibilities to the compounds were determined using the National Committee for Clinical Laboratory Standards (NCCLS) M7-A6 broth microdilution method. Cation-adjusted Mueller-Hinton broth (Ca^2+, 25 μg/mL; Mg^2+, 12.5 μg/mL) microdilution panels were prepared to contain antimicrobial doubling dilution concentrations of an appropriate range. DMSO (dimethylsulfoxide) controls were incorporated into the panel to mimic the quantity of DMSO used in dissolving some of the compounds at the higher concentrations. Each final panel well volume was 100 μL with a bacterial inoculum of 5×10^5 CFU (colony forming units)/mL of the relevant bacterium. Panels were read following 16 to 20 h of incubation at 35 degrees Celsius in ambient air. The MIC (minimum inhibitory concentration) was defined as the lowest concentration of antimicrobial inhibiting visible growth.

E. coli D22 = test: MIC, NCCLS M7-A6 broth microdilution, E. coli D22; type: cell-based; details: 35 degrees Celsius; for MIC: Escherichia coli, D22, 16 to 20 h; for MIC E coli D22: 16 to 20 h
Protocol: as §1

Row | Structure (SMILES) | remaining activity at 500 µM (AcpS enzyme) [%] | MIC [1] [µM] | MIC (E. coli D22) [µM] | activity at 50 µM (AcpS enzyme) [%] | % AcpS activity @ 500 uM (AcpS enzyme) [%] | MIC MRSA [1] [µM] | MIC E coli D22 (E. coli D22) [µM] | % AcpS activity at 50 uM (AcpS enzyme) [%]
1 | Cc1ccc(-c2ccc(-c3ccc(C)c4ccccc34)c(-c3nnn[nH]3)c2)c2ccccc12 [DNM0446, 5-(2,5-Bis(4-methylnaphthalen-1-yl)phenyl)-1H-tetrazole] | 25.4 | 4 (≈ 1.71 µg/mL) | > 125 |  |  |  |  | 
2 | Cc1cc(Cl)ccc1-c1ccc(-c2ccc(Cl)cc2C)c(-c2nnn[nH]2)c1 [DNM0447, 5-(2,5-Bis(4-chloro-2-methylphenyl)phenyl)-1H-tetrazole] | 0.47 | 15 (≈ 5.93 µg/mL) | > 125 | 32.6 |  |  |  | 
3 | c1ccc(Oc2ccc(-c3ccc(-c4ccc(Oc5ccccc5)cc4)c(-c4nn[nH]n4)c3)cc2)cc1 [DNM0453] |  |  |  |  | 23.76 | 8 (≈ 3.86 µg/mL) | >125 | 
4 | Cc1cc(Cl)ccc1-c1cc(-c2nn[nH]n2)cc(-c2ccc(Cl)cc2C)c1 [DNM0457] |  |  |  |  | 0 | 8 (≈ 3.16 µg/mL) | 60 (≈ 23.7 µg/mL) | 1.56
5 | Cc1ccc(-c2cc(-c3nn[nH]n3)cc(-c3ccc(C)c4ccccc34)c2)c2ccccc12 [DNM0461, 5-(3,5-Bis(4-methylnaphthalen-1-yl)phenyl)-2H-tetrazole] | 0.85 | 1 (≈ 0.427 µg/mL) | > 125 | 13.4 |  |  |  | 
6 | c1ccc(-c2ccccc2-c2cc(-c3nn[nH]n3)cc(-c3ccccc3-c3ccccc3)c2)cc1 [DNM0464] |  |  |  |  | 0.28 | 1 (≈ 0.451 µg/mL) | >125 | 9.03
7 | Clc1ccc(-c2cc(-c3ccc(Cl)cc3)cc(-c3nn[nH]n3)c2)cc1 [DNM0470, 5-(3,5-Bis(4-chlorophenyl)phenyl)-2H-tetrazole] | 27.7 | 4 (≈ 1.47 µg/mL) | 125 (≈ 45.9 µg/mL) |  |  |  |  | 
8 | Clc1ccc(-c2cc(-c3nn[nH]n3)cc(-c3ccccc3-c3ccccc3)c2)cc1 [DNM0479] |  |  |  |  | 0.1 | 2 (≈ 0.818 µg/mL) | >125 | 12.79
9 | Cc1ccc(-c2cc(-c3ccc(Cl)cc3)cc(-c3nnn[nH]3)c2)c2ccccc12 [DNM0480, 5-(4′-Chloro-5-(4-methylnaphthalen-1-yl)biphenyl-3-yl)-1H-tetrazole] | 2.04 | 4 (≈ 1.59 µg/mL) | 125 (≈ 49.6 µg/mL) | 7.35 |  |  |  | 
10 | Cc1ccc(-c2cc(-c3nnn[nH]3)sc2-c2ccc(C)c3ccccc23)c2ccccc12 [DNM0486, 5-(4,5-Bis(4-methylnaphthalen-1-yl)thiophen-2-yl)-1H-tetrazole] | 0.16 | 2 (≈ 0.865 µg/mL) | > 125 | 0.82 |  |  |  | 
11 | c1ccc(-c2ccccc2-c2cc(-c3nnn[nH]3)sc2-c2ccccc2-c2ccccc2)cc1 [DNM0489, 5-(4,5-Di(biphenyl-2-yl)thiophen-2-yl)-1H-tetrazole] | 0 | 2 (≈ 0.913 µg/mL) | > 125 | 17.9 |  |  |  | 
12 | Clc1cccc(-c2ccccc2-c2cc(-c3nn[nH]n3)cc(-c3ccccc3-c3cccc(Cl)c3)c2)c1 [DNM0493] |  |  |  |  | 2.7 | 4 (≈ 2.08 µg/mL) | >125 | 25.28
13 | Cc1ccc(-c2cc(-c3nnn[nH]3)sc2-c2ccc(C)c(Cl)c2)cc1Cl [DNM0504, 5-(4,5-Bis(3-chloro-4-methylphenyl)thiophen-2-yl)-1H-tetrazole] | 0.16 | 125 (≈ 50.2 µg/mL) | 125 (≈ 50.2 µg/mL) | 7.33 |  |  |  | 
14 | Cc1ccc(-c2cc(-c3nnn[nH]3)sc2-c2ccc(C)c(C)c2)cc1C [DNM0509, 5-(4,5-Bis(3,4-dimethylphenyl)thiophen-2-yl)-1H-tetrazole] | 0.2 | 15 (≈ 5.41 µg/mL) | > 125 | 31.1 |  |  |  | 
15 | CN(C)c1ccc(Cl)cc1-c1cc(-c2nn[nH]n2)cc(-c2cc(Cl)ccc2N(C)C)c1 [DNM0510] |  |  |  |  | 0.12 | 4 (≈ 1.81 µg/mL) | >125 | 8.4
16 | Cc1ccc(-c2cc(-c3nn[nH]n3)cc(-c3ccc(C)cc3Br)c2)c(Br)c1 [DNM0511] |  |  |  |  | 0 | 8 (≈ 3.87 µg/mL) | >125 | 14.36
17 | CC(C)c1ccc(-c2cc(-c3nnn[nH]3)sc2-c2ccc(C(C)C)cc2)cc1 [DNM0512, 5-(4,5-Bis(4-isopropylphenyl)thiophen-2-yl)-1H-tetrazole] | 0.7 | 8 (≈ 3.11 µg/mL) | > 125 | 37.3 |  |  |  | 
18 | Cc1ccc(-c2cc(-c3nn[nH]n3)cc(-c3cc(Cl)ccc3N(C)C)c2)c2ccccc12 [DNM0514] |  |  |  |  | 0.14 | 4 (≈ 1.76 µg/mL) | >125 | 5.73
19 | Cc1ccc(-c2cc(-c3nn[nH]n3)cc(-c3ccc(C)cc3-c3ccccc3)c2)c(-c2ccccc2)c1 [DNM0516] |  |  |  |  | 5 | 2 (≈ 0.957 µg/mL) | >125 | 32.01
20 | Cc1ccc(-c2cc(-c3nn[nH]n3)cc(-c3ccc(C)cc3-c3cccc(Cl)c3)c2)c(-c2cccc(Cl)c2)c1 [DNM0520] |  |  |  |  | 20.86 | 2 (≈ 1.09 µg/mL) | >125 | 
21 | Cc1ccccc1-c1cc(-c2nn[nH]n2)cc(-c2ccccc2C)c1 [DNM0529] |  |  |  |  | 0.16 | 30 (≈ 9.79 µg/mL) | >125 | 91.56
22 | Cc1ccccc1-c1cc(-c2nnn[nH]2)sc1-c1ccccc1C [DNM0531, 5-(4,5-Bis(2-methylphenyl)thiophen-2-yl)-1H-tetrazole] | 4.38 | 60 (≈ 19.9 µg/mL) | > 125 | 96.8 |  |  |  | 
23 | CC(C)c1ccccc1-c1cc(-c2nn[nH]n2)cc(-c2ccccc2C(C)C)c1 [DNM0532] |  |  |  |  | 0.22 | 60 (≈ 23 µg/mL) | >125 | 30.66
24 | CC(C)c1ccccc1-c1cc(-c2nnn[nH]2)sc1-c1ccccc1C(C)C [DNM0534, 5-(4,5-Bis(2-isopropylphenyl)thiophen-2-yl)-1H-tetrazole] | 0 | 8 (≈ 3.11 µg/mL) | > 125 | 34 |  |  |  | 
25 | c1ccc(-c2cc(-c3nnn[nH]3)sc2-c2ccccc2)cc1 [DNM0535] |  |  |  |  | 3.48 | 125 (≈ 38 µg/mL) | >125 | 92.62
26 | c1ccc(Oc2ccccc2-c2cc(-c3nnn[nH]3)sc2-c2ccccc2Oc2ccccc2)cc1 [DNM0536, 5-(4,5-Bis(2-phenoxyphenyl)thiophen-2-yl)-1H-tetrazole] | 0.2 | 8 (≈ 3.91 µg/mL) | 125 (≈ 61.1 µg/mL) | 8.25 |  |  |  | 
27 | Clc1ccccc1-c1cc(-c2nnn[nH]2)sc1-c1ccccc1Cl [DNM0538, 5-(4,5-Bis(2-chlorophenyl)thiophen-2-yl)-1H-tetrazole] | 0.58 | 30 (≈ 11.2 µg/mL) | > 125 | 82.2 |  |  |  | 
28 | Fc1ccc(-c2cc(-c3nn[nH]n3)cc(-c3ccc(F)c4ccccc34)c2)c2ccccc12 [DNM0539, 5-(3,5-Bis(4-fluoronaphthalen-1-yl)phenyl)-2H-tetrazole] | 39.4 | 8 (≈ 3.48 µg/mL) | > 125 |  |  |  |  | 
29 | Fc1ccc(-c2cc(-c3nnn[nH]3)sc2Cc2ccc(Cl)cc2)c2ccccc12 [DNM0587, 5-(5-(4-Chlorobenzyl)-4-(4-fluoronaphthalen-1-yl)thiophen-2-yl)-1H-tetrazole] | 0 | 8 (≈ 3.37 µg/mL) |  | 2.13 |  |  |  | 
30 | Clc1ccc(Cc2sc(-c3nnn[nH]3)cc2-c2ccccc2-c2ccccc2)cc1 [DNM0588, 5-(4-(Biphenyl-2-yl)-5-(4-chlorobenzyl)thiophen-2-yl)-1H-tetrazole] | 0 | 8 (≈ 3.43 µg/mL) |  | 2.67 |  |  |  | 
